{
  "source": "paper PMC9871035",
  "about": "“Discovery of structural and functional transition sites for membrane-penetrating activity of sheep myeloid antimicrobial peptide-18” (Scientific Reports, 2023)",
  "key": {"[1]": {"assay": "Estimation of helicity from CD", "format": "physicochemical", "settings": "peptide 100 μM, from [θ]mr at 222 nm; for % α-helix, H2O: H2O (10 mM sodium phosphate, pH 7.0)", "description": "CD spectra were measured on a J-810 spectropolarimeter (JASCO) using a 1.0 mm path-length cell. […] Three scans were conducted from 190 to 260 nm and the data are expressed in terms of mean residue molar ellipticity [θ]mr. The mean residue ellipticity, [θ]mr (deg cm^2 dmol^-1), was calculated according to the equation [θ]mr = (100θ)/(clN), where θ is the measured ellipticity (mdeg), c is the sample concentration (mM), l is the path length (cm), and N is the number of amino acids. Percent α-helicity was calculated using the equation ([θ]mr222nm—3000)/(− 39,000 × 100)[29]. Reference values for [θ]mr222nm = 0 and 36,000 (deg cm^2 dmol^−1) were used for 0% and 100% helicity, respectively[30]."}, "[2]": {"test_system": "Gram-negative and Gram-positive bacteria", "assay": "MIC over the panel of six strains (GM, range)", "format": "cell-based", "settings": "six strains of Table 1; average value ± SD", "description": "The antimicrobial activity of the peptides, i.e., their MIC values, were determined against Escherichia coli (KCTC 1682), Salmonella typhimurium (KCTC 1926), Pseudomonas aeruginosa (KCTC 1637), Bacillus subtilis (KCTC 3068), Staphylococcus epidermidis (KCTC 1917), Staphylococcus aureus (KCTC 1621), and Methicillin-resistant Staphylococcus aureus (CCARM 3089, 3090 and 3095) using broth microdilution in a 96-well plate according to existing methodologies[23]. Bacteria were grown at 37 ℃ on a spinner culture until a mid-log phase diluted to 2 × 10^6 CFU/ml in 1% peptone. The bacterial suspension was added to 100 μl of the sample solution (i.e., serial twofold dilution in 1% peptone). […] All experiments were performed in triplicate and included growth and sterility controls."}, "S. aureus (KCTC 1621) [3]": {"test_system": "S. aureus (KCTC 1621)", "assay": "SYTOX Green uptake assay", "format": "cell-based, Staphylococcus aureus", "settings": "2 × MIC, SYTOX 0.1 μM, PBS pH 7.4", "description": "The membrane permeabilization activity of the peptides was determined by using the SYTOX Green uptake assay, as described previously[33]. S. aureus (KCTC 1621) grown at 37 ℃ until the mid-log phase (OD600 = 0.4). The cell pellet was washed using PBS (pH 7.4) and was diluted to an OD600 = 0.05 in PBS (pH 7.4); SYTOX was added to the final concentration of 0.1 μM and this solution was pre-incubated in the dark at 4 ℃ for 16 h. Fluorescence was monitored using a F-4500 FL spectrophotometer (Hitachi, Japan) and excitation and emission wavelengths of 480 nm and 520 nm, respectively."}, "[4]": {"test_system": "S. aureus (KCTC 1621) cytoplasmic membrane", "assay": "Membrane depolarization assay (diSC3-5)", "format": "cell-based, Staphylococcus aureus", "settings": "2 × MIC, monitored over 1400 s", "description": "The cytoplasmic membrane depolarization activity of the peptides was measured using the membrane potential sensitive dye diSC3-5, as previously described[31],[32]. Briefly, S. aureus (KCTC 1621) was grown at 37 ℃ with agitation until the mid-log phase (OD600 = 0.3) and was harvested by centrifugation. Cells are washed twice with a buffer solution (i.e., 20 mM Glucose, 5 mM HEPES, 100 mM KCl; pH 7.4) and were resuspended to an OD600 = 0.05 in the buffer. Membrane depolarization was monitored by recording changes in the intensity of fluorescence emission of diSC3-5 after peptide concentration."}, "S. aureus (KCTC 1621) [5]": {"test_system": "S. aureus (KCTC 1621)", "assay": "Confocal laser scanning microscopy of FITC-labeled peptides", "format": "cell-based, Staphylococcus aureus", "settings": "FITC-labeled peptide 10 μM, 37 ℃, 30 min", "description": "(§1) E. coli (KCTC 1682) and S. aureus (KCTC 1621) were grown at mid-log phase and washed three times with PBS (pH 7.4). The bacteria were diluted at 10^6 CFU/ml and incubated with FITC-labeled peptides (10 μM) at 37 ℃ for 30 min. After incubation, this solution was washed thrice with PBS and was then transferred to a confocal dish. […] Fluorescent images were obtained with a 488 nm bandpass filter for FITC excitation."}, "E. coli (KCTC 1682)": {"test_system": "E. coli (KCTC 1682)", "assay": "Confocal laser scanning microscopy of FITC-labeled peptides", "format": "cell-based, Escherichia coli", "settings": "FITC-labeled peptide 10 μM, 37 ℃, 30 min", "description": "as §1"}},
  "note": "Where no end group is shown, it is not given here.",
  "data": [
    {"substance": "RGLRRLG-NH2 [R1-G7]", "values": [
      {"measurement": "% α-helix, 50% TFE", "setting": "[1]", "result": 6.9, "unit": "%"},
      {"measurement": "% α-helix, H2O", "setting": "[1]", "result": 5.6, "unit": "%"},
      {"measurement": "GM (geometric mean of MIC values from selected bacterial strains)", "setting": "[2]", "result": "> 64", "unit": "µM"}
    ]},
    {"substance": "RGLRRLARKIAHAVKKYG-NH2 [G7,13A]", "values": [
      {"measurement": "SYTOX Green uptake (fluorescence)", "setting": "S. aureus (KCTC 1621) [3]", "result": "induced the maximal fluorescence"},
      {"measurement": "% α-helix, 50% TFE", "setting": "[1]", "result": 33.9, "unit": "%"},
      {"measurement": "% α-helix, H2O", "setting": "[1]", "result": 7.6, "unit": "%"},
      {"measurement": "Membrane depolarization of S. aureus (diSC3-5 fluorescence)", "setting": "[4]", "result": "induced a significant membrane depolarization"},
      {"measurement": "GM (geometric mean of MIC values from selected bacterial strains)", "setting": "[2]", "result": "4.5(± 2.9) μM"}
    ]},
    {"substance": "RALRRLARKIAHAVKKYG-NH2 [G2,7,13A]", "values": [
      {"measurement": "Localization of peptide in S. aureus", "setting": "S. aureus (KCTC 1621) [5]", "result": "likely bound to the cell membrane"},
      {"measurement": "SYTOX Green uptake (fluorescence)", "setting": "S. aureus (KCTC 1621) [3]", "result": "induced the maximal fluorescence"},
      {"measurement": "% α-helix, 50% TFE", "setting": "[1]", "result": 44.4, "unit": "%"},
      {"measurement": "% α-helix, H2O", "setting": "[1]", "result": 5.7, "unit": "%"},
      {"measurement": "Membrane depolarization of S. aureus (diSC3-5 fluorescence)", "setting": "[4]", "result": "induced a significant membrane depolarization"},
      {"measurement": "Localization of peptide in E. coli", "setting": "E. coli (KCTC 1682)", "result": "likely bound to the cell membrane"},
      {"measurement": "GM (geometric mean of MIC values from selected bacterial strains)", "setting": "[2]", "result": "4.3(± 2.9) μM"}
    ]}
  ]
}
